1 molecule from patent publication US20140121236A1, “Compositions and Methods for Treating Myotonic Dystrophy Type 1” (UNIVERSITY OF SOUTHERN CALIFORNIA, priority 2012, published 2014) can be followed below.

Series [1] has as its system DM1 myoblasts. The series is described as follows: Viability of DM1 myoblasts by counting surviving cells. It is filed as cell-based, human. Particulars: Table 1, 10 μM, 4 days, surviving cells vs vehicle control.
Series [2] has as its system Clcn1. Briefly: Anti-Clcn1 staining of gastrocnemius muscle sections of HSALR mice. It is filed as in vivo. To be noted: 14 days treatment. From the text:
For all animals the recording electrode was inserted into the test muscle 20 times. The number of myotonic runs ≧1 second in the gastrocnemius muscle of individual HSA^LR mice treated with either the saline control or RCN-001 are shown.
Importantly, RCN-001 reduces the number of myotonic runs of ≧1 second (p<0.05) (FIG. 5), total time of myotonic runs ≧1 sec (4.04 s±2.9 vehicle; 0.99 s±1.4 RCN-001; p<0.05) and length of the longest run (1.96 s±0.97 vehicle; 0.73 s±0.71 RCN-001; p<0.05) in the gastrocnemius muscle of HSA^LR mice. […] Methods are detailed in the legend of FIG. 5.
(§1) CUG-RNA foci were detected by performing FISH on untreated DM1 myoblasts and DM1 myoblasts following treatment. For FISH analysis, DM1 myoblasts were plated on a 24-well clear bottom polystyrene plate with circular glass coverslips followed by treatment. Prior to FISH analysis, cells were fixed using 4% paraformaldehyde in 1×PBS for 20 min at room temperature. FISH analysis was performed using a Cy3 conjugated (CAG)10 oligonucleotide probe (Integrated DNA Technologies, Inc.) as described by Taneja et al, 1995 and Dansithong et al, 2005. CUG-RNA foci were observed as a red signal using fluorescence microscopy. […] Endogenous SHARP was detected using SHARP polyclonal antibodies from Bethyl at a dilution of 1:1000. […] Chloride channel 1 (Clcn1 a.k.a. CIC-1) was detected using CIC-1 polyclonal antibodies from Santa Cruz. […]

Series [3] concerns CUG-RNA foci in DM1 myoblasts. The series is described as follows: FISH analysis of nuclear CUG-RNA foci in DM1 myoblasts. To be noted: 4 days. It is filed as cell-based, human. The method, then: DM1 myoblasts were then treated with 10 μM of either RCN-001 or the vehicle (DMSO) for 4 days and then examined by FISH using a Cy3 (CAG)10 probe.
Normal myoblasts were purchased from Lonza, Inc. DM1 myoblasts were a gift from Dr. Charles Thornton. Normal and DM1 myoblasts were maintained in SkGM Medium (Lonza, Inc.) containing 10% Fetal Bovine Serum and 1% Penicillin-Streptomycin, 5% CO2 at 37° C. Human Embryonic Kidney 293 Cells (293HEK) were maintained in Dulbecco's Modification of Eagle's Medium (DMEM) from Cellgro supplemented with 10% Fetal Bovine Serum and 1% Penicillin-Streptomycin, 5% CO2 at 37° C.
CUG-RNA foci were detected by performing FISH on untreated DM1 myoblasts and DM1 myoblasts following treatment. For FISH analysis, DM1 myoblasts were plated on a 24-well clear bottom polystyrene plate with circular glass coverslips followed by treatment. Prior to FISH analysis, cells were fixed using 4% paraformaldehyde in 1×PBS for 20 min at room temperature. FISH analysis was performed using a Cy3 conjugated (CAG)10 oligonucleotide probe (Integrated DNA Technologies, Inc.) as described by Taneja et al, 1995 and Dansithong et al, 2005. CUG-RNA foci were observed as a red signal using fluorescence microscopy. Immunofluorescence was performed as described by Dansithong et al, 2008. Endogenous SHARP was detected using SHARP polyclonal antibodies from Bethyl at a dilution of 1:1000. The secondary antibodies conjugated with FITC (Invitrogen) were used at a 1:2000 dilution. Chloride channel 1 (Clcn1 a.k.a. CIC-1) was detected using CIC-1 polyclonal antibodies from Santa Cruz. The secondary antibodies conjugated with Alexa Flour 488 (Invitrogen) were used at a 1:2000 dilution. FISH analysis in mouse muscle section was carried out as described in Mancodi et al, 2000 (9).

Series [4] relates to wild-type and HSALR mice. The series is described as follows: Off-target splicing and RNA steady-state levels in mice. It is filed as in vivo. The source says:
Results for wild-type and HSA^LR mice are not shown.

Series [5] concerns SHARP. The series is described as follows: Nuclear SHARP levels in treated HSALR mice. Particulars: 40 mg/kg i.p. each day for 7 days (not shown). It is filed as in vivo. The method, then:
Furthermore, CUG foci, abnormal RNA splicing, myotonia and reduced Clcn1 protein levels are reversed in HSA^LR mice treated with RCN-001: Age and gender matched HSA^LR mice were treated with either vehicle or 40/mgs/kg of RCN-001 injected i.p. each day for 7 days. After treatment CUG foci were examined and RNA isolated from skeletal muscle was subjected to RT-PCR analysis to examine the efficacy of RCN-001 in correcting the splice defects of Clcn1, lbd3 and Serca-1 RNAs, which are abnormally spliced in DM1 (20).
as §1

In series [6] the test system is DM1 myoblasts. Briefly: Toxicity by shape and size of the nuclei of DM1 myoblasts. It is filed as cell-based, human. To be noted: Table 1, 10 μM, 4 days.

For the molecule `CCCCCCc1cc2cc(-c3nnc(-c4cccc(OC)c4)o3)c(=O)oc2cc1O` [RCN-001], the “Toxicity: Viable” value in series [1] is reported as “++ (30-40% cell survival)”. Further, in series [2], the “chloride channel (Clcn1) levels” value is “re-establish normal chloride channel levels”. In series [3] (10 μM, vs vehicle (DMSO)), the “decrease in cells containing 3 or more foci” value is ~5 fold and the “increase in cells containing no foci” value is ~10 fold. Further, in series [3] (Table 1, 10 μM, FISH), the “# of Foci (percentage) 0-1: Percentage of cells with no or 1 nuclear foci” value is listed as 48 percentage and the “# of Foci (percentage) >2: Percentage of cells with 2 or greater nuclear foci” value is 52 percentage. Moreover, the “off target effects on steady-state levels of endogenous (CUG)6-25 repeat encoding RNAs” value in series [4] (wild-type and HSALR mice (not shown)) was “does not show significant off target effects”. The “splice patterns of RNAs that are abnormally spliced in DM1” value in series [4] (wild-type mice (not shown)) is recorded as “does not alter splice patterns”. Moreover, the “splice patterns of RNAs that are normally spliced in DM1” value in series [4] (wild-type or HSALR mice (not shown)) is reported as “does not alter splice patterns”. Further, the “nuclear SHARP levels” value in series [5] is recorded as “allowed nuclear SHARP levels to be re-established”. Further, the “Toxicity: Toxic” value in series [6] was “++++ (60% alterations in nuclei shape and size)”.
